How the values were obtained:
[1] = test system: shLDHC breast cancer cells (MDA-MB-468, BT-549, HCC-1500); assay: Annexin V/PI apoptosis after 72 hrs of treatment with olaparib or cisplatin; format: cell-based
Source text: (§1) FIG. 6A: Annexin V/PI flow cytometric quantification of apoptosis after 72 hrs of treatment with olaparib or cisplatin. FIG. 6B depicts a western blot of cleaved caspase 3 protein expression with β-actin as loading control. Numbers under each lane represent mean densitometry values (arbitrary units) for cleaved caspase 3 signal (high exposure blot) from three independent experiments normalized to β-actin. FIG. 6C: Representative immunofluorescence microscopy images of phospho-γ-H2AX (red) and DAPI-stained nuclei (100× magnification). Yellow arrows indicate early apoptotic cells and white arrows indicate late apoptotic cells. […] All statistical analysis comparing shCTRL vs shLDHC performed using Student's t-test.
Supplemental FIG. 5A depicts a representative Annexin V/PI flow cytometry plots of MDA-MB-468 cells after 72 hrs of treatment with olaparib or cisplatin. Supplemental FIG. 5B depicts Annexin V/PI flow cytometric quantification of BT-549 cells after 72 hrs of treatment with olaparib or cisplatin. Supplemental FIG. 5C: Annexin V/PI flow cytometric quantification of HCC-1500 cells after 72 hrs of treatment with olaparib or cisplatin. […] Statistical analysis comparing shCTRL vs shLDHC performed using Student's t-test. […]

HCC-1500 cells = assay: Sensitivity to olaparib or cisplatin (72 h treatment; Annexin V/PI, clonogenic assay); format: cell-based; details: 14 days of culture post-treatment (72 h)
MDA-MB-468 cells [2] = assay: Phospho-γ-H2AX immunofluorescence after olaparib or cisplatin treatment; format: cell-based; details: similar levels in shCTRL and shLDHC treated cells
Source text: as §1
(§2) DNA damage repair inhibitors and DNA damage inducing agents, including the Poly ADP-ribose polymerase (PARP)-inhibitor olaparib and cisplatin, are widely used anti-cancer drugs with particular benefit to patients with defects in DDR pathways such as BRCA1/2-positive or ‘BRCAness’ basal breast cancer patients.

[3] = test system: shLDHC breast cancer cells (MDA-MB-468, BT-549, MDA-MB-231, HCC-1500); assay: Clonogenic assay at 14 days of culture post-treatment (72 h) with olaparib or cisplatin; format: cell-based; details: cell-line dependent
MDA-MB-468 cells [4] = assay: Western blot of cleaved caspase 3 after olaparib or cisplatin treatment; format: cell-based; details: MDA-MB-468, after treatment
Source text: as §1, §2

LDHC = details: cited from earlier work

Row | SMILES | apoptosis in giant shLDHC cells compared to shCTRL cells [1] | clonogenic ability of shCTRL and shLDHC cells (HCC-1500 cells) | DNA damage after treatment (MDA-MB-468 cells [2]) | colony formation ability of shLDHC cells further compromised, compared to shCTRL treated cells [3] | expression of cleaved caspase 3 in shLDHC cells (MDA-MB-468 cells [4]) | selectivity towards LDHC (LDHC; vs other lactate dehydrogenase enzymes (LDHA, LDHB)) | affinity for LDHC (LDHC)
1 | N.N.[Cl][Pt][Cl] [cisplatin] | further induced | completely abolished | significant increase | greater than 4 fold | augmented | – | –
2 | CCCNC(=O)C(=O)O [N-propyl oxamate] | – | – | – | – | – | high degree of selectivity | –
3 | O=C(c1cc(Cc2n[nH]c(=O)c3ccccc23)ccc1F)N1CCN(C(=O)C2CC2)CC1 [olaparib] | further induced | – | significant increase | about 2 fold | augmented | – | –
4 | CCNC(=O)C(=O)O [N-Ethyl oxamate] | – | – | – | – | – | – | high affinity

From US20230321135A1, “TARGETING OF LACTATE DEHYDROGENASE C, METHODS OF PREPARING SAME, AND METHODS OF USING SAME IN COMBINATION WITH ANTI-CANCER TREATMENTS” (QATAR FOUNDATION FOR EDUCATION, SCIENCE AND COMMUNITY …, priority 2020, published 2023)
